What all share (type): functional
One test relates to Pseudomonas aeruginosa. The test can be described thus: Antibacterial activity against Pseudomonas aeruginosa ATCC 15442 assessed as inhibition of bacterial growth incubated for 24 hrs by broth microdilution method.
Test [1] deals with Mycolicibacterium smegmatis. Briefly: Antimycobacterial activity against Mycobacterium smegmatis CIP7326 assessed as inhibition of mycobacterial growth incubated for 24 hrs by broth microdilution method.
The nature of test [2]: Antimycobacterial activity against Mycobacterium abscessus subsp. bolletii assessed as inhibition of mycobacterial growth incubated for 2 to 3 days by broth microdilution method. The settings on record: Mycobacteroides abscessus; time 2-3 day.

Results on two compounds are retold here after ChEMBL document CHEMBL4840341, “Voatriafricanines A and B, Trimeric Vobasine-Aspidosperma-Aspidosperma Alkaloids from Voacanga africana” (J Nat Prod, 2021).

In brackets after ≈: the same amount, converted by molar mass.

As for cetrimide, the MIC with Pseudomonas aeruginosa was determined as 0.1 µg/mL. As to `CO[C@H]1/C=C/O[C@@]2(C)Oc3c(C)c(O)c4c(O)c(c(/C=N/N5CCN(C)CC5)c(O)c4c3C2=O)NC(=O)/C(C)=C\C=C\[C@H](C)[C@H](O)[C@@H](C)[C@@H](O)[C@@H](C)[C@H](OC(C)=O)[C@@H]1C` [RIFAMPIN], the MIC in test [1] and in test [2] was 0.1 µg/mL (≈ 0.122 µM) each time.
